From patent US20230013435A1, “COMPOSITION FOR TREATING SYNUCLEINOPATHIES” (STANDIGM INC., priority 2019, published 2023) come the findings set out here.

In this data set the test system is SH-SYSY cell line. As to the kind of experiment: Cytotoxicity, cell viability by MTT test. The class given is cell-based. Conditions: SH-SYSY cells. As to the method:
An SH-SYSY cell line (ATCC) was used to confirm the cytotoxicity of nevirapine. The SH-SYSY cell line was seeded in a 96-well plate, cultured, treated with an increasing concentration (0, 10, 100 μM) of nevirapine, and then incubated at a constant temperature for 24 hours. Thereafter, cell viability was measured using an MTT test method. Cells treated with 0 μM nevirapine were used as the control. ***P<0.001 against the control. Also, in the next experiment, the cytotoxicity of pirenzepine to be used as a reference drug was tested in the same manner as in the cytotoxicity experiment of nevirapine.

As to `Cc1ccnc2c1NC(=O)c1cccnc1N2C1CC1` [nevirapine, 11-cyclopropyl-5,11-dihydro-4-methyl-6H-dipyrido[3,2-b:2′,3′-e][1,4]diazepin-6-one], under “10 μM, 24 hours”, the “cell viability compared with the control” value is recorded as “not changed significantly”. The “decrease in cell viability” value (100 μM, 24 hours) was “approximately 70%”.

Take `CN1CCN(CC(=O)N2c3ccccc3C(=O)Nc3cccnc32)CC1` [pirenzepine]: the “cell viability compared with the control” value (0.5 μM) is given as “slight decrease”. Where the note is “10 μM”, the “decrease in cell viability” value is given as “approximately 60%”.
